Assay: molar heat capacity at constant pressure
Conditions: 101.33 kPa

OC[C@@H](O)[C@@H](O)[C@H](O)[C@H](O)CO [D-mannitol]
molar heat capacity at constant pressure [J/K/mol]
Conditions	Small sample (50 mg) DSC	relaxation calorimetry
289.15 K, Crystal	223.23	–
290 K, Crystal	–	224.45
290.15 K, Crystal	223.75	–
291.15 K, Crystal	224.51	–
292.15 K, Crystal	225.52	–
292.3 K, Crystal	–	226.18
293.15 K, Crystal	226.11	–
294.15 K, Crystal	226.79	–
295.15 K, Crystal	227.7	–
296.15 K, Crystal	228.45	–
297.15 K, Crystal	229.12	–
298.15 K, Crystal	229.81	230.54
299.15 K, Crystal	230.64	–
300 K, Crystal	–	231.93
300.15 K, Crystal	231.67	–
301.15 K, Crystal	232.46	–
302.15 K, Crystal	233.28	–
302.32 K, Crystal	–	233.27
303.15 K, Crystal	234.21	–
304.15 K, Crystal	235.1	–
305 K, Crystal	236.23	–
305.15 K, Crystal	236.24	–
306.15 K, Crystal	237.06	–
307.15 K, Crystal	238.05	–
308.15 K, Crystal	239.43	–
309.15 K, Crystal	240.22	–
310 K, Crystal	241.08	–
310.15 K, Crystal	241.1	–
311.15 K, Crystal	242.22	–
312.15 K, Crystal	243.21	–
313.15 K, Crystal	244.03	–
314.15 K, Crystal	244.96	–
315 K, Crystal	245.72	–
315.15 K, Crystal	245.76	–
316.15 K, Crystal	246.45	–
317.15 K, Crystal	247.23	–
318.15 K, Crystal	248.19	–
319.15 K, Crystal	249.13	–
320 K, Crystal	250.2	–
320.15 K, Crystal	250.01	–
321.15 K, Crystal	250.96	–
322.15 K, Crystal	251.62	–
323.15 K, Crystal	252.78	–
324.15 K, Crystal	253.84	–
325 K, Crystal	254.58	–
325.15 K, Crystal	254.69	–
326.15 K, Crystal	255.76	–
327.15 K, Crystal	256.67	–
328.15 K, Crystal	257.61	–
329.15 K, Crystal	258.51	–
330 K, Crystal	258.9	–
330.15 K, Crystal	259.36	–
331.15 K, Crystal	260.09	–
332.15 K, Crystal	260.73	–
333.15 K, Crystal	261.83	–
334.15 K, Crystal	262.7	–
335 K, Crystal	263.16	–
335.15 K, Crystal	263.13	–
336.15 K, Crystal	263.97	–
337.15 K, Crystal	264.87	–
338.15 K, Crystal	265.55	–
339.15 K, Crystal	266.62	–
340 K, Crystal	267.39	–
340.15 K, Crystal	267.34	–
341.15 K, Crystal	268.11	–
342.15 K, Crystal	269.07	–
343.15 K, Crystal	270.04	–
344.15 K, Crystal	271.03	–
345 K, Crystal	271.57	–
345.15 K, Crystal	272.18	–
346.15 K, Crystal	272.93	–
347.15 K, Crystal	273.5	–
348.15 K, Crystal	274.48	–
349.15 K, Crystal	275.36	–
350 K, Crystal	275.71	–
350.15 K, Crystal	275.83	–
351.15 K, Crystal	276.6	–
352.15 K, Crystal	277.59	–
353.15 K, Crystal	278.11	–
354.15 K, Crystal	278.88	–
355 K, Crystal	279.8	–
355.15 K, Crystal	279.75	–
356.15 K, Crystal	280.45	–
357.15 K, Crystal	281.3	–
358.15 K, Crystal	282.01	–
359.15 K, Crystal	282.77	–
360 K, Crystal	283.81	–
360.15 K, Crystal	283.45	–
361.15 K, Crystal	284.29	–
362.15 K, Crystal	285.29	–
363.15 K, Crystal	285.81	–
364.15 K, Crystal	286.87	–
365 K, Crystal	287.75	–
365.15 K, Crystal	287.69	–
366.15 K, Crystal	288.42	–
367.15 K, Crystal	289.35	–
368.15 K, Crystal	290.07	–
369.15 K, Crystal	290.83	–
370 K, Crystal	291.59	–
370.15 K, Crystal	291.54	–
371.15 K, Crystal	292.39	–
372.15 K, Crystal	293.2	–
373.15 K, Crystal	293.84	–
374.15 K, Crystal	294.5	–
375 K, Crystal	295.33	–
375.15 K, Crystal	295.14	–
376.15 K, Crystal	295.96	–
377.15 K, Crystal	296.71	–
378.15 K, Crystal	297.3	–
379.15 K, Crystal	297.95	–
380 K, Crystal	298.96	–
380.15 K, Crystal	298.84	–
381.15 K, Crystal	299.49	–
382.15 K, Crystal	300.09	–
383.15 K, Crystal	300.96	–
384.15 K, Crystal	301.85	–
385 K, Crystal	302.49	–
385.15 K, Crystal	302.62	–
386.15 K, Crystal	303.19	–
387.15 K, Crystal	303.89	–
388.15 K, Crystal	304.75	–
389.15 K, Crystal	305.62	–
390 K, Crystal	305.94	–
390.15 K, Crystal	306.4	–
391.15 K, Crystal	307.13	–
392.15 K, Crystal	307.69	–
393.15 K, Crystal	308.43	–
394.15 K, Crystal	309.27	–
395 K, Crystal	309.33	–
395.15 K, Crystal	309.91	–
396.15 K, Crystal	310.41	–
397.15 K, Crystal	311.05	–
398.15 K, Crystal	311.45	–
399.15 K, Crystal	312.11	–
400 K, Crystal	312.71	–
400.15 K, Crystal	312.88	–
401.15 K, Crystal	313.5	–
402.15 K, Crystal	314.14	–
403.15 K, Crystal	315.02	–
404.15 K, Crystal	315.76	–
405 K, Crystal	316.13	–
405.15 K, Crystal	316.19	–
406.15 K, Crystal	317	–
407.15 K, Crystal	317.55	–
408.15 K, Crystal	318.33	–
409.15 K, Crystal	319.11	–
410 K, Crystal	319.66	–
410.15 K, Crystal	319.62	–
411.15 K, Crystal	320.34	–
412.15 K, Crystal	321.09	–
413.15 K, Crystal	321.71	–
414.15 K, Crystal	322.33	–
415 K, Crystal	323.4	–
415.15 K, Crystal	323.11	–
416.15 K, Crystal	323.76	–
417.15 K, Crystal	324.47	–
418.15 K, Crystal	325.49	–
419.15 K, Crystal	326.12	–
420 K, Crystal	327.48	–
420.15 K, Crystal	327.06	–
421.15 K, Crystal	327.89	–
422.15 K, Crystal	328.71	–
423.15 K, Crystal	329.87	–
424.15 K, Crystal	330.92	–
425 K, Crystal	332.03	–
425.15 K, Crystal	332.36	–
458.15 K, Liquid	511.69	–
459.15 K, Liquid	511.2	–
460 K, Liquid	511.26	–
460.15 K, Liquid	510.98	–
461.15 K, Liquid	510.64	–
462.15 K, Liquid	510.47	–
463.15 K, Liquid	510.51	–
464.15 K, Liquid	510.42	–
465 K, Liquid	511.16	–
465.15 K, Liquid	510.6	–
466.15 K, Liquid	510.6	–
467.15 K, Liquid	510.56	–
468.15 K, Liquid	510.86	–
469.15 K, Liquid	511.11	–
470 K, Liquid	511.05	–
470.15 K, Liquid	511.08	–
471.15 K, Liquid	511.49	–
472.15 K, Liquid	511.38	–
473.15 K, Liquid	511.18	–
474.15 K, Liquid	511.09	–
475 K, Liquid	510.95	–
475.15 K, Liquid	510.93	–
476.15 K, Liquid	510.9	–
477.15 K, Liquid	510.87	–
478.15 K, Liquid	510.67	–
479.15 K, Liquid	510.62	–
480 K, Liquid	510.84	–
480.15 K, Liquid	510.66	–
481.15 K, Liquid	510.52	–
482.15 K, Liquid	510.71	–
483.15 K, Liquid	510.62	–
484.15 K, Liquid	510.5	–
485 K, Liquid	510.74	–
485.15 K, Liquid	510.63	–
486.15 K, Liquid	510.59	–
487.15 K, Liquid	510.6	–
488.15 K, Liquid	510.74	–
490 K, Liquid	510.64	–
